From the NIST ThermoML archive (doi:10.1016/j.jct.2016.03.040)

Experiment: mn = molality of the nth substance listed, in mol/kg
Conditions: 100 kPa, Liquid; for speed of sound: Frequency=3 MHz, Sing-around technique in a fixed-path interferometer; for mass density: Vibrating tube method

O=C(N[C@H](CO)[C@H](O)c1ccc([N+](=O)[O-])cc1)C(Cl)Cl + O
Conditions | mass density, 288.15 K [kg/m3] | mass density, 298.15 K [kg/m3] | mass density, 308.15 K [kg/m3] | mass density, 318.15 K [kg/m3] | speed of sound, 288.15 K [m/s] | speed of sound, 298.15 K [m/s] | speed of sound, 308.15 K [m/s] | speed of sound, 318.15 K [m/s]
m1 = 0.0005 | 999.273 | 997.209 | 994.205 | 990.372 | 1466.9 | 1496 | 1519.6 | 1536.2
m1 = 0.001 | 999.429 | 997.363 | 994.356 | 990.522 | 1467 | 1496.1 | 1519.7 | 1536.4
m1 = 0.002 | 999.643 | 997.576 | 994.56 | 990.713 | 1467.1 | 1496.2 | 1519.9 | 1536.5
m1 = 0.004 | 999.922 | 997.847 | 994.831 | 990.992 | 1467.5 | 1496.7 | 1520.2 | 1536.8

NCC(=O)O [2-aminoacetic acid] + O
Conditions | mass density, 288.15 K [kg/m3] | mass density, 298.15 K [kg/m3] | mass density, 308.15 K [kg/m3] | mass density, 318.15 K [kg/m3] | speed of sound, 288.15 K [m/s] | speed of sound, 298.15 K [m/s] | speed of sound, 308.15 K [m/s] | speed of sound, 318.15 K [m/s]
m1 = 0.01095 | 999.494 | 997.428 | 994.433 | 990.57 | 1467.3 | 1496.5 | 1520 | 1536.6
m1 = 0.02116 | 999.815 | – | 994.686 | 990.869 | 1467.9 | 1497 | 1520.6 | 1537.1
m1 = 0.04014 | 1000.41 | 998.287 | 995.236 | 991.411 | 1469 | 1498 | 1521.5 | 1538
m1 = 0.06033 | 1001.05 | – | 995.832 | 991.989 | 1470.1 | 1499 | 1522.5 | 1539
m1 = 0.08023 | 1001.7 | 999.548 | – | – | 1471.2 | 1500.1 | 1523.5 | 1540
m1 = 0.1006 | 1002.36 | 1000.17 | 997.123 | 993.251 | 1472.4 | 1501.2 | 1524.5 | 1540.9
m1 = 0.15 | 1003.96 | 1001.73 | – | 994.665 | 1475.2 | 1503.8 | 1527 | 1543.3
m1 = 0.2003 | 1005.57 | 1003.28 | 1000.2 | 996.211 | 1478 | 1506.4 | 1529.5 | 1545.7

NCC(=O)NCC(=O)O [glycylglycine] + O
Conditions | mass density, 288.15 K [kg/m3] | mass density, 298.15 K [kg/m3] | mass density, 308.15 K [kg/m3] | mass density, 318.15 K [kg/m3] | speed of sound, 288.15 K [m/s] | speed of sound, 298.15 K [m/s] | speed of sound, 308.15 K [m/s] | speed of sound, 318.15 K [m/s]
m1 = 0.01033 | 999.704 | 997.627 | 994.594 | 990.758 | 1467.7 | 1496.8 | 1520.3 | 1536.9
m1 = 0.02031 | 1000.23 | 998.133 | 995.135 | 991.281 | 1468.6 | 1497.7 | 1521.2 | 1537.7
m1 = 0.04035 | 1001.4 | 999.259 | 996.28 | 992.375 | 1470.5 | 1499.5 | 1522.8 | 1539.3
m1 = 0.06012 | 1002.5 | 1000.39 | 997.363 | 993.41 | 1472.4 | 1501.3 | 1524.4 | 1540.8
m1 = 0.0802 | 1003.7 | 1001.51 | 998.463 | 994.52 | 1474.3 | 1503.1 | 1526 | 1542.4
m1 = 0.1011 | 1004.84 | 1002.62 | 999.564 | 995.646 | 1476.3 | 1505 | 1527.7 | 1544
m1 = 0.1502 | 1007.57 | 1005.27 | 1002.18 | 998.186 | 1480.9 | 1509.4 | 1531.8 | 1547.9
m1 = 0.1995 | 1010.2 | 1007.94 | 1004.8 | 1000.72 | 1485.5 | 1513.8 | 1535.8 | 1551.8
